# Laboratory results from patent US20050026223A1, “Method and compositions for increasing bone mass” (The Board of Trustees of the University of Arkansas, priority 1999, published 2005).
# Experiment: Vertebral compression strength of fifth lumbar vertebrae (L5)
# Format: in vivo, mice
# Details: 2000 ng/g body weight for 28 days, mean
# Description: In a representative experiment of this sort, seven 4-5 month old female mice per group are screened twice for BMD in a four week period immediately prior to the initiation of the experiment to establish that peak adult bone mass has been attained. A subset of mice are then ovariectomized. Intact and ovariectomized mice are treated with vehicle, or 20, 200 or 2000 ng/g body weight estratriene-3-ol or another ANGEL compound. […] Ultimate load bearing properties of the fifth lumbar murine vertebrae (L5) is determined. This is done using a servohydraulic axial-torsional material testing machine (Model MTS 810 Bionx; MTS Systems Corp., Eden Prairie, Minn.) and a Lebow load cell (Eaton Products, Troy, Mich.). Data are recorded and analyzed using the LabVIEW software package and an acquisition/signal conditioning board (Model NB-MIO-16, National Instruments Corporation, Austin, Tex.). The L5 specimens that is used for ultimate load bearing is cleaned of surrounding soft tissue and the length and diameter recorded with a digital caliper at a resolution of 0.01 mm (Mitutoyo Model #500-196, Ace Tools, Ft. Smith, Ark.). […] Vertebrae are individually compressed between parallel loading platens along the cephalocaudad axis until failure and the ultimate load (in Newtons) and displacement (in mm) are recorded. […]
compound,measurement,setting,value
C[C@@]12CCC[C@H]1[C@@H]1CCc3cc(O)ccc3[C@H]1CC2 [estratriene-3-ol],Vertebral Compression,"Ovx mice, p < 0.00001",85.57 ± 10.17 Newtons
same,Vertebral Compression,"intact mice, p < 0.006",96.26 ± 15.92 Newtons
